In patent US6569638B1, “Method for screening compounds for the treatment of neoplasia” (Cell Pathways, Inc, priority 2000, dated 2003):

How the values were obtained:
[1] = tested on: panel of cultured human cell lines; assay: Neutral red growth inhibition, panel of cultured human cell lines; assay type: cell-based; conditions: five days continuous treatment, read-out: GI50 calculated for all cell lines
Procedure: (§1) Compound B's activity is not confined to activity against colon cancer cell lines or animal models of colon cancer. It has a broad range of anti-neoplastic effects in various neoplastic cell lines. Various types of human cancer cell lines were propagated under sterile conditions in RPMI 1640 medium with 10% fetal bovine serum, 2 mM L-glutamine and sodium bicarbonate. To determine growth inhibitory effects of Compound B, cells were seeded in 96-well plates at a density of 1000 cells per well. Twenty-four hours after plating, the cells were dosed with various concentrations of the free base of Compound B solubilized in DMSO (final concentration 0.1%). The effect of the drug on tumor cell growth was determined using the neutral red cytotoxicity assay following five days of continuous treatment. Neutral red is a dye that is selectively taken up by viable cells by an ATP-dependent transport mechanism.

HT-29 = assay: Neutral red growth inhibition; assay type: cell-based, human; conditions: HT-29, Colon, free base
Procedure: as §1

NCI-H322M = assay: Neutral red growth inhibition; assay type: cell-based, human; conditions: Lung, free base
Procedure: as §1

PC-3 = assay: Neutral red growth inhibition; assay type: cell-based, human; conditions: PC-3, Prostate, free base
Procedure: as §1

MDA-MB-435 = assay: Neutral red growth inhibition; assay type: cell-based, human; conditions: MDA-MB-435, Breast, free base
Procedure: as §1

DU145 = assay: Neutral red growth inhibition; assay type: cell-based, human; conditions: DU145, Prostate, free base
Procedure: as §1

HCT-15 = assay: Neutral red growth inhibition; assay type: cell-based, human; conditions: HCT-15, Colon, free base
Procedure: as §1

NCI-H82 = assay: Neutral red growth inhibition; assay type: cell-based, human; conditions: NCI-H82, Lung, free base
Procedure: as §1

Colo 205 = assay: Neutral red growth inhibition; assay type: cell-based, human; conditions: Colo 205, Colon, free base
Procedure: as §1

SW-620 = assay: Neutral red growth inhibition; assay type: cell-based, human; conditions: SW-620, Colon, free base
Procedure: as §1

NCI-H460 = assay: Neutral red growth inhibition; assay type: cell-based, human; conditions: NCI-H460, Lung, free base
Procedure: as §1

NCI-H23 = assay: Neutral red growth inhibition; assay type: cell-based, human; conditions: NCI-H23, Lung, free base
Procedure: as §1

CCRF-CEM = assay: Neutral red growth inhibition; assay type: cell-based, human; conditions: Leukemia, HCl salt
Procedure: as §1

UISO-BCA-1 = assay: Neutral red growth inhibition; assay type: cell-based, human; conditions: UISO-BCA-1, Breast, free base
Procedure: as §1

MDA-MB-231 = assay: Neutral red growth inhibition; assay type: cell-based, human; conditions: MDA-MB-231, Breast, free base
Procedure: as §1

OVCAR = assay: Neutral red growth inhibition; assay type: cell-based, human; conditions: Ovary, HCl salt
Procedure: as §1

PrEC cells = assay: Histone-associated fragmented DNA (apoptosis) in normal prostate epithelial cells; assay type: cell-based, human; conditions: 50 μM, up to 4 days
Procedure: The androgen-sensitive prostate tumor cell line, LNCaP (from ATCC (Rockville, Md.)) was propagated under standard conditions using […] medium containing 5% fetal calve serum and 2 mM glutamine. Primary prostate epithelial cell cultures (PrEC) derived from normal prostate (from Clonetics Inc. (San Diego, Calif.)) were grown under the same conditions as the tumor cell line except a serum-free medium optimized for the growth of such cultures was used (Clonetics Inc). For the experiments, LNCaP or PrEC cells were seeded in 96 well plates at a density of 10,000 cells per well. After 24 hours, the cells were treated with either vehicle (0.1% DMSO) or 50 μM Compound B (free base) solubilized in DMSO. After various drug treatment times ([…]) the cells were lysed and processed for measurement of histone-associated DNA as an indicator of apoptotic cell death (see, Piazza et al., Cancer Research 57: 2452-2459, 1997).

[2] = tested on: SW-480 colon adenocarcinoma cells; assay: Apoptosis induction determined by morphology; assay type: cell-based, human
From the text: Apoptosis occurs naturally during normal tissue turnover and during embryonic development of organs and limbs. Apoptosis also is induced by cytotoxic T-lymphocytes and natural killer cells, by ionizing radiation and by certain chemotherapeutic drugs. Inappropriate regulation of apoptosis is thought to play an important role in many pathological conditions including cancer, AIDS, or Alzheimer's disease, etc. Compounds can be screened for induction of apoptosis using cultures of tumor cells maintained under conditions as described above. Treatment of cells with test compounds involves either pre- or post-confluent cultures and treatment for two to seven days at various concentrations. Apoptotic cells are measured in both the attached and “floating” compartments of the cultures. Both compartments are collected by removing the supernatant, trypsinizing the attached cells, and combining both preparations following a centrifugation wash step (10 minutes, 2000 rpm). The protocol for treating tumor cell cultures with sulindac and related compounds to obtain a significant amount of apoptosis has been described in the literature. (See, Piazza, G. A., et al., Cancer Research, 55:31 10-16, 1995, which is incorporated herein by reference). The novel features include collecting both floating and attached cells, identification of the optimal treatment times and dose range for observing apoptosis, and identification of optimal cell culture conditions.
Following treatment with a compound, cultures can be assayed for apoptosis and necrosis by florescent microscopy following labeling with acridine orange and ethidium bromide. The method for measuring apoptotic cell number has previously been described by Duke & Cohen, “Morphological And Biochemical Assays Of Apoptosis,” Current Protocols In Immunology, Coligan et al., eds., 3.17.1-3.17.16 (1992, which is incorporated herein by reference).
For example, floating and attached cells can be collected by trypsinization and washed three times in PBS. Aliquots of cells can be centrifuged. […]

[3] = Toxicity study in dogs (capsules); assay type: in vivo
From the text: Thus, on a single-dose basis, Compound B is not acutely toxic.

**Q.** Which GI50 [1] does the source give for CC1=C(CC(=O)NCc2ccccc2)c2cc(F)ccc2/C1=C\c1ccncc1.Cl [Compound B, (Z)-5-fluoro-2-methyl-(4-pyridylidene)-3-(N-benzyl)indenylacetamide hydrochloride] here?
**A.** 1000 to 2000 nM

**Q.** What about the GI50 (HT-29) of the same compound?
**A.** 2100 nM

**Q.** And the GI90 (HT-29)?
**A.** 8000 nM

**Q.** What about the GI50 (NCI-H322M) of the same compound?
**A.** 2100 nM

**Q.** And the GI90 (NCI-H322M)?
**A.** 13200 nM

**Q.** And the GI50 (PC-3)?
**A.** 1700 nM

**Q.** What about the GI90 (PC-3) of the same compound?
**A.** 82500 nM

**Q.** What about the GI50 (MDA-MB-435) of the same compound?
**A.** 1600 nM

**Q.** And the GI90 (MDA-MB-435)?
**A.** 2300 nM

**Q.** And the GI50 (DU145)?
**A.** 1600 nM

**Q.** What about the GI90 (DU145) of the same compound?
**A.** 2800 nM

**Q.** What about the GI50 (HCT-15) of the same compound?
**A.** 1700 nM

**Q.** And the GI90 (HCT-15)?
**A.** 3000 nM

**Q.** What about the GI50 (NCI-H82) of the same compound?
**A.** 1700 nM

**Q.** What about the GI90 (NCI-H82) of the same compound?
**A.** 5800 nM

**Q.** And the GI50 (Colo 205)?
**A.** 1600 nM

**Q.** What about the GI90 (Colo 205) of the same compound?
**A.** 2400 nM

**Q.** And the GI50 (SW-620)?
**A.** 1700 nM

**Q.** What about the GI90 (SW-620) of the same compound?
**A.** 2500 nM

**Q.** What about the GI50 (NCI-H460) of the same compound?
**A.** 1900 nM

**Q.** And the GI90 (NCI-H460)?
**A.** 30000 nM

**Q.** And the GI50 (NCI-H23)?
**A.** 1700 nM

**Q.** What about the GI90 (NCI-H23) of the same compound?
**A.** 2500 nM

**Q.** And the GI50 (CCRF-CEM)?
**A.** 1400 nM

**Q.** And the GI50 (UISO-BCA-1)?
**A.** 1500 nM

**Q.** And the GI90 (UISO-BCA-1)?
**A.** 4700 nM

**Q.** What about the GI50 (MDA-MB-231) of the same compound?
**A.** 1800 nM

**Q.** And the GI90 (MDA-MB-231)?
**A.** 77600 nM

**Q.** And the GI50 (OVCAR)?
**A.** 1200 nM

**Q.** And the DNA fragmentation (PrEC cells)?
**A.** did not affect DNA fragmentation

**Q.** And the “% Apoptosis” value ([2]; 0.35 μM)?
**A.** 16%

**Q.** And the “% Apoptosis” value ([2]; 0.7 μM)?
**A.** 27%

**Q.** And the “% Apoptosis” value ([2]; 1.5 μM)?
**A.** 88%

**Q.** And the “oral LD50” value [3]?
**A.** greater than 1000 mg/kg

**Q.** What about the signs of toxicity ([3]; capsules, single 1000 mg/kg) of the same compound?
**A.** no signs of toxicity

**Q.** What about the “signs of drug-related effects” value ([3]; single dose and seven consecutive doses of 1000 mg/kg/day) of the same compound?
**A.** At no time in either dosing phase were any obvious signs of drug-related effects observed
